{
  "source": "patent US11717511B2",
  "about": "“Pharmaceutical composition comprising derivative compound of 1,2-naphthoquinone for preventing or treating solid cancer or blood cancer” (HUEN Co., Ltd., priority 2018, dated 2023)",
  "key": {"[1]": {"system": "HeLa (cervix adenocarcinoma) cells", "assay": "Cell viability of solid cancer cells, WST assay, HeLa", "format": "cell-based", "settings": "Homo sapiens, 1-30 μM, 6 hours", "from_the_text": "(§1) To investigate availability as a medicine for solid cancer, A549 cell line obtained from a -person with lung carcinoma, HeLa cell line obtained from a person with cervix adenocarcinoma, HepG2 cell line obtained from a child with hepatocellular carcinoma, MCF7 cell line obtained from a person with breast adenocarcinoma, and Beas-2B cell line obtained from normal lung for comparison with solid cancer cell line were used.\n(§2) A549 (lung carcinoma), HeLa (cervix adenocarcinoma), HepG2 (hepatocellular carcinoma), MCF7 (breast adenocarcinoma), and Beas-2B (normal lung) cell lines were incubated in DMEM medium containing 10% FBS at 37 °C in a 5% CO2 incubator, and subcultured every 2 days before use in the test.\n(§3) A549 (lung carcinoma), HeLa (cervix adenocarcinoma), HepG2 (hepatocellular carcinoma), MCF7 (breast adenocarcinoma), and Beas-2B (normal lung) cells were seeded at 1×10^4 cells/well in a 96-well plate, and then for cell stabilization, the cells were incubated at 37 °C in a 5% CO2 incubator for 16 hours or longer. Thereafter, the cells were treated with compounds 99, 163, 191, and 192 (1-30 μM) out of the compounds synthesized in Example 1-1, and then incubated for 6 hours. DMSO and β-lapachone were used as a control. After 4 hours of incubation, 10 μl of WST solution was added to the cells, followed by incubation for 2 hours, and then the absorbance at 450 nm was measured by a multi-scan machine. The cell viability of A549 (lung carcinoma), HeLa (cervix adenocarcinoma), HepG2 (hepatocellular carcinoma), MCF7 (breast adenocarcinoma), and Beas-2B (normal lung) cells is shown in Table 5 and FIG. 5."}, "[2]": {"system": "KG1α cells (refractory acute myeloid leukemia)", "assay": "Cell viability of KG1α cells, WST assay", "format": "cell-based, human", "settings": "0.1-3 μM", "experimental": "Acute leukemia has been identified to have a wide variety of causative factors and a variety of cell lines have also been established. To investigate the availability as a wide-spectrum medicine but not a medicine for a particular type of acute leukemia, KG1α cells were constructed by selecting only cells having a stem cell phenotype from KG1 cells, which are a cell line obtained from a -person with acute myeloid leukemia, and then used.\nKG1α cells were incubated in IMDM containing 20% fetal bovine serum (FBS). All the cells were incubated at 37 °C in a 5% CO2 incubator, and subcultured every 2 or 3 days before use in the test.\nKG1α cells, which have resistance to idarubicin and cytarabine, which are acute myeloid leukemia medicines, are refractory acute myeloid leukemia (AML) cells. KG1α cells incubated in Example 2-1 were seeded at 1×10^5 cells/well in a 96-well plate, and then for cell stabilization, the cells were incubated at 37 °C in a 5% CO2 incubator for 16 hours or longer. Thereafter, the cells were treated with compounds 99 and 163 (0.1-3 μM) shown in Table 4 out of the compounds synthesized in Example 1, and then incubated for 24 hours. […] After 24 hours, the cells were treated with 10 μl of WST solution and then incubated for 2 hours, and then the absorbance at 450 nm was measured by a multi-scan machine."}, "[3]": {"system": "MCF7 (breast adenocarcinoma) cells", "assay": "Cell viability of solid cancer cells, WST assay, MCF7", "format": "cell-based", "settings": "Homo sapiens, 1-30 μM, 6 hours", "from_the_text": "as §1, §2, §3"}, "[4]": {"system": "K562 cells (chronic myeloid leukemia)", "assay": "Cell viability of K562 cells, WST assay", "format": "cell-based, human", "settings": "0.1-5 μM", "experimental": "K562 cells obtained from a -person with chronic myeloid leukemia were incubated in RPMI medium containing 10% fetal bovine serum (FBS) at 37 °C in a 5% CO2 incubator, and subcultured every 2 days before use in the test.\nK562 cells incubated in Example 3-1 were seeded at 1×10^5 cells/well in a 96-well plate, and then for cell stabilization, the cells were incubated at 37 °C in a 5% CO2 incubator for 16 hours or longer. Thereafter, the cells were treated with compounds 99, 163, 191, and 192 (0.1-5 μM) out of the compounds synthesized in Example 1-1, and then incubated for 4 hours. DMSO was used as a control. After 4 hours of incubation, 10 μl of WST solution was added to the cells, followed by incubation for 2 hours, and then the absorbance at 450 nm was measured by a multi-scan machine."}, "[5]": {"system": "A549 (lung carcinoma) cells", "assay": "Cell viability of solid cancer cells, WST assay, A549", "format": "cell-based", "settings": "Homo sapiens, 1-30 μM, 6 hours", "from_the_text": "as §1, §2, §3"}, "[6]": {"system": "HepG2 (hepatocellular carcinoma) cells", "assay": "Cell viability of solid cancer cells, WST assay, HepG2", "format": "cell-based", "settings": "Homo sapiens, 1-30 μM, 6 hours", "from_the_text": "as §1, §2, §3"}},
  "data": [
    {"molecule": "CC(C)c1nc2c(s1)C(=O)C(=O)c1ccccc1-2", "note": "[Compound 163]", "values": [
      {"measurement": "IC50", "setting": "[1]", "value": 4.6, "unit": "µM"},
      {"measurement": "IC50", "setting": "[2]; 24 hours", "value": 0.9, "unit": "µM"},
      {"measurement": "IC50", "setting": "[2]; Homo sapiens, KG-1, 24 h", "value": "0.5 to 1", "unit": "µM"},
      {"measurement": "IC50", "setting": "[3]", "value": 13, "unit": "µM"},
      {"measurement": "IC50", "setting": "[4]; Homo sapiens, K562, 4 h", "value": 2.1, "unit": "µM"},
      {"measurement": "IC50", "setting": "[5]", "value": 6.1, "unit": "µM"},
      {"measurement": "IC50", "setting": "[6]", "value": 14.1, "unit": "µM"}
    ]},
    {"molecule": "Cn1nc2c(n1)-c1ccccc1C(=O)C2=O", "note": "[Compound 191]", "values": [
      {"measurement": "IC50", "setting": "[1]", "value": 6.6, "unit": "µM"},
      {"measurement": "IC50", "setting": "[3]", "value": 14.8, "unit": "µM"},
      {"measurement": "IC50", "setting": "[4]; 4 hours", "value": 1.6, "unit": "µM"},
      {"measurement": "IC50", "setting": "[4]; Homo sapiens, K562, 4 h", "value": "1 to 2", "unit": "µM"},
      {"measurement": "IC50", "setting": "[5]", "value": 8.4, "unit": "µM"},
      {"measurement": "IC50", "setting": "[6]", "value": 13.8, "unit": "µM"}
    ]},
    {"molecule": "Cn1nnc2c1C(=O)C(=O)c1ccccc1-2", "note": "[Compound 192]", "values": [
      {"measurement": "IC50", "setting": "[1]", "value": 4.4, "unit": "µM"},
      {"measurement": "IC50", "setting": "[3]", "value": 11.7, "unit": "µM"},
      {"measurement": "IC50", "setting": "[4]; 4 hours", "value": 1.2, "unit": "µM"},
      {"measurement": "IC50", "setting": "[4]; Homo sapiens, K562, 4 h", "value": "1 to 2", "unit": "µM"},
      {"measurement": "IC50", "setting": "[5]", "value": 5, "unit": "µM"},
      {"measurement": "IC50", "setting": "[6]", "value": 12.2, "unit": "µM"}
    ]}
  ]
}
